# Measurements reported in patent US20190076439A1, “AMINOPHENOTHIAZINES FOR MODULATING THE NUMBER OF SYNAPSES” (CONSEJO SUPERIOR DE INVESTIGACIONES CIENTIFICAS (CSIC), priority 2015, published 2019).
# What was measured:
# [1] = tested on: Drosophila fmr1 mutant and wild type larvae
# From the text: FIG. 3 A) volume of the neuromuscular plate normalized with respect to the wild type. Wt DMSO=wild type larvae grown in medium with DMSO carrier (200 micromolar), wt FD44=larvae grown in medium with FD44 dissolved in DMSO (200 micromolar), dFMRPmutDMSO=mutant larvae for the fmr1 gene grown in medium with DMSO, dFMRPmut FD44=mutant larvae grown in medium with FD44 (200 micromolar). B) Same genotypes computing the synapse number (immunopositive points for the nc82 monoclonal antibody). C) Same genotypes computing the number of collateral branches. D) Representative images of each genotype. Each image is an accumulation of all the confocal planes.
# The mutating in the fmr1 gene corresponds to Fmr1^Δ50M # BL-6930 and the wild type corresponds to the Canton-S strain, all originating from the repository of the Bloomington Drosophila Stock Center. […] Once the medium had cooled, the vials were used normally for placing eggs and growing larvae at 25° C. until reaching the advanced LIII stage.
# Reaching the advanced larva III stage, the animals were surgically processed to expose the neuromuscular junctures (NMJ) following the described method (Martin-Peña et al., Age-independent synaptogenesis by phosphoinositide 3 kinase. J Neurosci. 2006 Oct. 4; 26(40):10199-208). The nc82 antibody is a specific monoclonal for the Bruchpilot protein of Drosophila belonging to the CAST family of vertebrae and forms the presynaptic specialization. It was obtained from the Drosophila Hybridoma Bank (DSHB). The anti-HRP antibody produced in rabbits marks the neuronal membrane and was obtained from Jackson ImmunoResearch. A larval neuromuscular juncture was analyzed up to a total of 8-12 larvae per genotype to avoid growth artefacts. The serialized confocal sections of 1 micrometer thickness were analyzed and quantified using the Imaris® program.
# The larval preparations were stained with the nc82 antibody to visualize the synapse and with the anti-HRP to visualize the membrane of the axon. Lastly, the synapse number was measured in images obtained in confocal microscopy and quantified by means of Imaris® software.
# [2] = target: T1, Drosophila NCS-1 (Frq2) protein (Drosophila melanogaster, UniProt Q9VWX8); experiment: Crystallographic structure of the NCS-1 complex with FD44; format: binding; conditions: 1.6 Å dataset, FIG. 4
# T1 sequence (Q9VWX8 1-187): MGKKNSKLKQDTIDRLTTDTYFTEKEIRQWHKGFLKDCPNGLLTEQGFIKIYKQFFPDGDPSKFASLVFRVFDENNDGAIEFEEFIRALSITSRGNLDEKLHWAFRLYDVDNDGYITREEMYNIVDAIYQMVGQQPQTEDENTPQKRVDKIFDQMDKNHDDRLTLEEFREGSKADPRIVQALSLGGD
# From the text: FIG. 4 (A) Representation of the crystallographic structure of the NCS1/FD44 complex. The FD44 molecule is shown in sticks. The 2Fo-Fc map of the small molecule is shown at 1σ. (B) Representation of the electrostatic molecular surface of NCS1 bound to FD44 where the hydrophobic environment of FD44 is observed. (C) Detailed view of the amino acids in contact with FD44. The majority of the interactions are Van der Waals, except a strong hydrogen bond with T92, that is mediated by water molecule (with discontinuous black lines), and three weak hydrogen bonds where a C atom is the hydrogen donor and an O atom is the acceptor. (D) Close-up view of the cavity where FD44 is bound.
# The purified Drosophila NCS-1 (Frq2) protein was dialyzed with water and concentrated to 10 mg ml-1 using a concentrator with a cut membrane of 10 kDa (Vivaspin®). 0.3 mg of FD44 were added to 250 μl of protein sample and incubated for 16 hours at 4° C. The insoluble fraction of the compound was separated by centrifugation. The preliminary crystallization experiments were carried out using the Innovadine® crystallization robot and commercial crystallization kits (Molecular Dimensions®, Qiagen®, Hampton Research® and Jena Bioscience®). […]
# [3] = target: T2, interaction between human NCS1 and Ric8a (Homo sapiens, UniProt P62166); experiment: Coimmunoprecipitation interference test of the NCS1/Ric8a interaction in lysate of transfected HEK293 cells; format: biochemical; conditions: HEK293 cells transfected with V5-Ric8a and NCS1; lysate incubated with compound; FIG. 2
# T2 construct: The NCS1 construct was subcloned into pCDNA3.1; expressed in transfected cells; host or cells: HEK293
# Procedure: The DMSO lane represents a positive control of the interaction.
# In order to check whether the interaction which has been previously detected (Romero-Pozuelo J et al. The guanine-exchange factor Ric8a binds to the Ca^2+ sensor NCS-1 to regulate synapse number and neurotransmitter release. J Cell Sci. 2014 Oct. 1; 127(Pt 19):4246-59) between the Drosophila Frq2 and Ric8a proteins, the coimmunoprecipitation of their human equivalents, NCS1 and Ric8a was tested. Human Ric8a was subcloned into nV5pCDNA3.1. The NCS1 construct was subcloned into pCDNA3.1. The cotransfections were carried out in HEK293 cells using the Superfect® (Qiagen®) reagent and lysed 48 hours later. Before its clarification, the lysates were incubated with the respective compound at 4° C. for the night (12 hours) with and without anti-V5 (Invitrogen®) or anti-NCS1 (Cell Signaling Technology®) antibodies as is indicated in each experiment. As a negative control, immunoprecipitations were carried out with an unrelated antibody. The following antibodies and dilutions were used with the Western blots: rabbit anti-NCS1 (1:1000) and mouse anti-V5 (1:2000). […] The Ric8a immunoprecipitation pulls NCS1 and vice versa. […]
# T2 sequence (P62166 2-190 limits assumed): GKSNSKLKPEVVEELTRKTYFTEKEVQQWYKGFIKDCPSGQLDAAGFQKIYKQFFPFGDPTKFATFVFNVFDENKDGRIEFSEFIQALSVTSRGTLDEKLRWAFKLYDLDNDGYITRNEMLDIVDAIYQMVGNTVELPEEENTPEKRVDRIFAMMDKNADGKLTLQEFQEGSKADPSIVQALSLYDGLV
smiles,measurement,setting,value
O=C(CN1CCCCC1)NN1c2ccccc2Sc2ccccc21 [FD44],neuronal projection volume (volume of the neuromuscular plate),"[1]; fmr1 mutant larvae, 200 micromolar in culture medium, FIG. 3A",reverts the neuronal projection volume to the normal levels of the controls
same,synapse number (nc82 immunopositive points),"[1]; fmr1 mutant larvae, 200 micromolar in culture medium, FIG. 3B",reversion in the mutant which has ingested FD44
same,effect on wild type control (volume of the neuromuscular plate),[1]; in vivo,innocuous for the wild type control
same,collateral branch number (neuritogenesis),"[1]; wild type and fmr1 mutant larvae, 200 micromolar in culture medium, FIG. 3C",does not show any change
same,binding mode in the NCS-1 crystal complex,[2],inserted in the N-terminal part of the elongated hydrophobic groove
same,"inhibition of the interaction between human NCS1 and Ric8a (coimmunoprecipitation, Western blot)",[3],effectively inhibits this interaction
